Values after ≈ are worked out from the molar mass of the structure shown.
What was measured:
[1] = Volume of distribution at steady state in Sprague-Dawley rat at 1 mg/kg, iv; type: ADME, organism-based; design: dose 1 mg/kg, route intravenous; conditions: in vivo, read-out: Vdss
[2] = Drug metabolism in human feces assessed as oxidized metabolites at 50 mg, po single dose; type: ADME, organism-based; conditions: in vivo
[3] = Clearance in Sprague-Dawley rat urine at 1 mg/kg, iv; type: ADME, organism-based; design: dose 1 mg/kg, route intravenous
[4] = Total clearance in wild-type mouse at 1 mg/kg, iv; type: ADME, organism-based; design: dose 1 mg/kg, route intravenous; conditions: in vivo
[5] = molecular target: T1, Solute carrier organic anion transporter family member 2B1 (Homo sapiens, UniProt O94956); assay: Inhibition of OATP2B1-mediated [3H]estrone-3-sulfate uptake in human OATP2B1 expressing HEK293/PDZK1 cells by scintillation counting; type: ADME, cell-based
T1 sequence (O94956 whole entry): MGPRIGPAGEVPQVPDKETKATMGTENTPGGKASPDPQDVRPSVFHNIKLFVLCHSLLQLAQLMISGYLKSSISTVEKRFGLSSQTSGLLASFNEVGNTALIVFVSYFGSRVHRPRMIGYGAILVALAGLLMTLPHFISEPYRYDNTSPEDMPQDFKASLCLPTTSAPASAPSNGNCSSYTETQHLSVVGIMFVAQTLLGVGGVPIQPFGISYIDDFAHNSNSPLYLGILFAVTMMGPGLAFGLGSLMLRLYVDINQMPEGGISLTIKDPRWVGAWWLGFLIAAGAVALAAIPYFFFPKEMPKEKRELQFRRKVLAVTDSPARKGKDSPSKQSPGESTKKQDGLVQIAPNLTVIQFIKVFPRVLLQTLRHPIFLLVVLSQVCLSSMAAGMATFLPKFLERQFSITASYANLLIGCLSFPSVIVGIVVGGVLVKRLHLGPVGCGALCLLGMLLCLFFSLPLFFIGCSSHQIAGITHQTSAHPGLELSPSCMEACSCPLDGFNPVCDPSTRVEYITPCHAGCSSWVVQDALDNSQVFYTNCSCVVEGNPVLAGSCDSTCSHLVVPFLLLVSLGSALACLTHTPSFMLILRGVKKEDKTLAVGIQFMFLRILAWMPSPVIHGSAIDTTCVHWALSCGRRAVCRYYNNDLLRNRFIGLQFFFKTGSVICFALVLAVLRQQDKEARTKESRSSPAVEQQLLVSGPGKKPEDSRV

Hepatocyte [6] = assay: Drug uptake in mouse hepatocytes in presence of rifampicin OATP inhibitor; type: ADME, cell-based
[7] = Solubility of the compound; type: physicochemical
[8] = Total clearance in pdzk1(-/-) mouse at 1 mg/kg, iv; type: ADME, organism-based; design: dose 1 mg/kg, route intravenous; conditions: in vivo
Liver [9] = assay: Drug uptake in mouse liver at 1 mg/kg, iv in presence of 30 umol/kg TPeA; type: ADME, organism-based; design: dose 1 mg/kg, route intravenous; conditions: in vivo
Hepatocyte [10] = assay: Drug uptake in mouse hepatocytes at pH 5.5; type: ADME, cell-based
Kidney = assay: Drug uptake in mouse kidney at 1 mg/kg, iv in presence of 30 umol/kg TPeA; type: ADME, organism-based; design: dose 1 mg/kg, route intravenous; conditions: in vivo
Hepatocyte [11] = assay: Drug uptake in mouse hepatocytes at 37 degC up to 5 mins; type: ADME, cell-based
[12] = Total clearance in Sprague-Dawley rat at 1 mg/kg, iv; type: ADME, organism-based; design: dose 1 mg/kg, route intravenous; conditions: in vivo
[13] = molecular target: T2, Solute carrier family 22 member 1 (Homo sapiens, UniProt O15245); assay: Inhibition of OCT1-mediated [14C]tetraethylammonium uptake in human OCT1 expressing HEK293/PDZK1 cells by scintillation counting; type: ADME, cell-based
T2 sequence (O15245 whole entry): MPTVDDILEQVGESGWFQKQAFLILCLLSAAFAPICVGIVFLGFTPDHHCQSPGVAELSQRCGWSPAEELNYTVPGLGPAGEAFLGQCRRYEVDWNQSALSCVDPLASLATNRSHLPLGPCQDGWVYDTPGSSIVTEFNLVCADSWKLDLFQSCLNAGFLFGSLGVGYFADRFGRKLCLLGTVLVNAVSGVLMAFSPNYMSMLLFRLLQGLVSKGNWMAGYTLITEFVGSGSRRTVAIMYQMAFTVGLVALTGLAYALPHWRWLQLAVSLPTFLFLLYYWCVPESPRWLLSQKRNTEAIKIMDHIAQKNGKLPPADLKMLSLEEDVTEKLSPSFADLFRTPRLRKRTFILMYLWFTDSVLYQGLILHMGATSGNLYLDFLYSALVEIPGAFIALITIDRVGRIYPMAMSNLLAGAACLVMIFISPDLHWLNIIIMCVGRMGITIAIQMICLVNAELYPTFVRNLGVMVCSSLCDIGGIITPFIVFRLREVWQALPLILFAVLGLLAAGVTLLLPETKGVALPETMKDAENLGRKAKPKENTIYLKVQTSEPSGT

[14] = Drug metabolism in human urine assessed as oxidized metabolites at 50 mg, po single dose; type: ADME, organism-based; conditions: in vivo
Hepatocyte [15] = assay: Drug uptake in mouse hepatocytes at pH 6.5; type: ADME, cell-based
[16] = Drug excretion in Sprague-Dawley rat urine assessed as unchanged compound level at 1 mg/kg, iv for 72 hrs; type: ADME, organism-based; design: dose 1 mg/kg, route intravenous; conditions: read-out: Drug excretion
[17] = Total clearance in bile duct cannulated Sprague-Dawley rat at 1 mg/kg, iv; type: ADME, organism-based; design: dose 1 mg/kg, route intravenous; conditions: in vivo
Hepatocyte [18] = assay: Drug uptake in mouse hepatocytes in absence of Cl-; type: ADME, cell-based
Hepatocyte [19] = assay: Drug uptake in mouse hepatocytes at 4 degC; type: ADME, cell-based
Hepatocyte [20] = assay: Drug uptake in mouse hepatocytes in presence of TPeA; type: ADME, cell-based
[21] = molecular target: T3, Organic cation/carnitine transporter 2 (Homo sapiens, UniProt O76082); assay: Inhibition of OCTN2-mediated [14C]carnitine uptake in human OCTN2 expressing HEK293/PDZK1 cells by scintillation counting; type: cell-based
T3 sequence (O76082 whole entry): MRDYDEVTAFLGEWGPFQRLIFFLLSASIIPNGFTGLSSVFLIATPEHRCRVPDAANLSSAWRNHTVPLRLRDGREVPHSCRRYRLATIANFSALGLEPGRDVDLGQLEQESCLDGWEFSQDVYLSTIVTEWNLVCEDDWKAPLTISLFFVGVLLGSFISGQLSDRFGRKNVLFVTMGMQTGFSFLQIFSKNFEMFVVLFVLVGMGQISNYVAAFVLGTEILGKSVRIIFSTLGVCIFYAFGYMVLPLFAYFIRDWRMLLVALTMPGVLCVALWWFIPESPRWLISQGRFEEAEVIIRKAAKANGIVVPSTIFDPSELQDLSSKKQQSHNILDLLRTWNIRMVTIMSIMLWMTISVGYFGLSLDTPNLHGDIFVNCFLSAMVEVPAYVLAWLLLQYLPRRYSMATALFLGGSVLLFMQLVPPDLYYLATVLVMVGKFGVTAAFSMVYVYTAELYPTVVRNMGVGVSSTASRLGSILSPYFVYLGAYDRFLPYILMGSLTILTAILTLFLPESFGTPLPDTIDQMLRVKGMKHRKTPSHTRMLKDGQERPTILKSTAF

Liver [22] = assay: Drug uptake in mouse liver at 1 mg/kg, iv in presence of rifampicin OATP inhibitor; type: ADME, organism-based; design: dose 1 mg/kg, route intravenous; conditions: in vivo
[23] = Drug excretion in Sprague-Dawley rat bile assessed as unchanged compound level at 1 mg/kg, iv for 72 hrs; type: ADME, organism-based; design: dose 1 mg/kg, route intravenous; conditions: read-out: Drug excretion
[24] = Total clearance in bile-duct cannulated Sprague-Dawley rat at 1 mg/kg, iv in presence of 20 mg/kg rifampicin (reference value: 34.3 +/- 3.9 ml/h/kg); type: ADME, organism-based; conditions: in vivo

SMILES: CC1=NN(c2ccc(C)c(C)c2)C(=O)/C1=N\Nc1cccc(-c2cccc(C(=O)O)c2)c1O [ELTROMBOPAG]
- Vd [1]: 0.287 L/kg
- Drug excretion [2]: 59%
- CL renal [3]: < 0.00117 mL/min/kg
- clearance [4]: 1.29 mL/min/kg
- Ki [5]: 8.48 µM
- inhibition (INH) ([5]; human, hek293/pdzk1): Active
- Drug uptake (Hepatocyte [6]): Not Active
- solubility [7]: 200 µM (≈ 88.5 µg/mL)
- clearance [8]: 0.92 mL/min/kg
- Drug uptake (Liver [9]): Not Active
- Drug uptake (Hepatocyte [10]): Active
- Drug uptake (Kidney): Active
- Drug uptake (Hepatocyte [11]): Active
- clearance [12]: 0.55 mL/min/kg
- Ki [13]: 103 µM
- inhibition (INH) ([13]; human, hek293/pdzk1): Active
- Drug excretion [14]: 31%
- Drug uptake (Hepatocyte [15]): Active
- dose excreted at 72 h [16]: < 0.02%
- clearance [17]: 0.572 mL/min/kg
- Drug uptake (Hepatocyte [18]): Active
- Drug uptake (Hepatocyte [19]): Not Active
- Drug uptake (Hepatocyte [20]): Not Active
- inhibition (INH) [21]: Not Active
- Drug uptake (Liver [22]): Not Active
- dose excreted at 72 h [23]: 40%
- clearance [24]: 0.335 mL/min/kg

Reference: ChEMBL document CHEMBL3526078, “Pharmacokinetics and hepatic uptake of eltrombopag, a novel platelet-increasing agent” (Drug Metab Dispos, 2011)
